Laboratory results as given in patent US11976083B2, “Inhibitors of peptidylarginine deiminases” (Gilead Sciences, Inc., priority 2020, dated 2024).
pIC50: −log10 of the molar value.

Tests used:
[1] = from COc1cc(C(=O)OC(C)C)cc2nc(-c3cc4ccc([C@@H](C)N)nc4n3CCCCCc3ccccc3C(=O)O)n(C)c12; amide bond; HATU; DCM; 24.6 mM; 25.0 °C; 16.0 h
[2] = tested on: collagen induced arthritis (CIA); conditions: prophylactic treatment, murine CIA model; cited from earlier work
[3] = tested on: models of chronic and acute inflammatory diseases; conditions: MRL/lpr mouse lupus, hemorrhagic shock in rats, mouse CLP sepsis, mouse DSS-colitis, ApoE-/- arteriosclerosis, diabetic wound healing models; cited from earlier work
human PAD4 = biological target: T1, human PAD4 (Homo sapiens, UniProt Q9UM07); assay: In vitro PAD4 BAEE biochemical assay; conditions: BAEE substrate 3 mM, 5 nM PAD4, 2 mM calcium chloride; geometric mean of multiple experiments
T1 construct: human PAD4 (NM_012387), A2-P663, was PCR amplified; His-SUMO (N, cleaved yes); made in house; host or cells: E. coli BL21(DE3)
In short: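 Ammonia produced by BAEE deimination (3 mM substrate, 2 h, 25 °C) was read as fluorescent isoindole after o-phthalaldehyde/DTT derivatization, ex 405 nm/em 535 nm. Human PAD4 at 5 nM final, 2 mM calcium, pH 7.6 MOPS; compound preincubated 30 min. IC50s, normalized to BB-Cl-Amidine and DMSO controls, were geometric-mean averaged.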

T1 sequence (Q9UM07 2-663): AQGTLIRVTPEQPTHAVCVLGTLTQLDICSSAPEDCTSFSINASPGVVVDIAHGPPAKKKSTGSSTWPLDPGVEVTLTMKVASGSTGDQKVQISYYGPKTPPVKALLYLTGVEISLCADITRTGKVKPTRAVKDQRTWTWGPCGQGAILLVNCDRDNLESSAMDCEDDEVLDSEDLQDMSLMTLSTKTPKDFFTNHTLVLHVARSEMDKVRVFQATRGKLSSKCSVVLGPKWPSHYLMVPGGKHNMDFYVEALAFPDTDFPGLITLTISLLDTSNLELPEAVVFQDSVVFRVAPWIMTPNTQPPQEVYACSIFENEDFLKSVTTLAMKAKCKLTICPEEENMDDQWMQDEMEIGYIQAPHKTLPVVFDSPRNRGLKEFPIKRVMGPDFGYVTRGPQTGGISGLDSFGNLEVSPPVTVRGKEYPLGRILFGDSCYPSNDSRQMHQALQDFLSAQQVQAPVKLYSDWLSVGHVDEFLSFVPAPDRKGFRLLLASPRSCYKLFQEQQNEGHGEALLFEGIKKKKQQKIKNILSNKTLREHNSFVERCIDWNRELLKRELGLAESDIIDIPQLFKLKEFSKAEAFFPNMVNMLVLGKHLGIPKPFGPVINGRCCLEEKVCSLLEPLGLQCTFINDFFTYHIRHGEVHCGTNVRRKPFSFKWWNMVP

pIC50 (human PAD4) | Compound | clinical and histological scores [2] | clinical, inflammatory, histopathological and mechanical end points [3] | further results
– | COc1cc(C(=O)OC(C)C)cc2nc(-c3cc4ccc5nc4n3CCCCCc3ccccc3C(=O)N[C@@H]5C)n(C)c12 | – | – | ring closure, yield of all isomers [1]: 70.9%
– | CCn1c(-c2nc3cc(C(=O)N4CCC[C@@H](N)C4)cc(OC)c3n2C)cc2cccnc21.Cl [GSK199] | improvement of clinical and histological scores | – | –
– | YW3-56 | – | reduction of clinical, inflammatory, histopathological and mechanical end points | –
– | NC(=O)[C@H](CCCN=C(N)CCl)NC(=O)c1ccccc1 [chloroamidine] | improvement of clinical and histological scores | reduction of clinical, inflammatory, histopathological and mechanical end points | –
6.74 | C[C@H]1NC(=O)C(C)(C)CCCCCCn2c(-c3nc4cc(C(=O)N[C@H]5CNCC[C@@H]5F)c(F)cc4n3C3CCC3)cc3ccc1nc32 [Example 420, 1-cyclobutyl-6-fluoro-˜{N}-[(3˜{S},4˜{S})-4-fluoro-3-piperidyl]-2-[(11˜{R})-8,8,11-trimethyl-9-oxo-1,10,19-triazatricyclo[10.5.2.0^{15,18}]nonadeca-12(19),13,15(18),16-tetraen-17-yl]benzimidazole-5-carboxamide] | – | – | –
6.67 | COc1cc(C(=O)N2CCC[C@@H](N)C2)cc2nc(-c3cc4ccc5cc4n3CCCCCCNC(=O)c3ccccc3-5)n(C)c12 [Example 51, 17-[5-[(3~{R})-3-aminopiperidine-1-carbonyl]-7-methoxy-1-methyl-benzimidazol-2-yl]-9,16-diazatetracyclo[14.5.2.0^{2,7}.0^{19,23}] tricosa-1(22),2,4,6,17,19(23),20-heptaen-8-one] | – | – | –
